# Paper PMC9525273 (Nature Communications, 2022)
# Several values for one entry are separate records, joined by “and”; a condition that tells them apart may be missing. Equal values may be shown once. Read-outs that look alike come from different tables or passages of the source.
# Key:
# [1] = molecular target: T1, PfATP4^WT (membranes from Dd2-Polδ parasites) (Plasmodium falciparum, UniProt A0A143ZZK9); test: Membrane ATPase assay, ATP4-associated (Na+-dependent) ATPase activity; assay type: biochemical; conditions: Dd2-Polδ
# T1 sequence (A0A143ZZK9 1-1264): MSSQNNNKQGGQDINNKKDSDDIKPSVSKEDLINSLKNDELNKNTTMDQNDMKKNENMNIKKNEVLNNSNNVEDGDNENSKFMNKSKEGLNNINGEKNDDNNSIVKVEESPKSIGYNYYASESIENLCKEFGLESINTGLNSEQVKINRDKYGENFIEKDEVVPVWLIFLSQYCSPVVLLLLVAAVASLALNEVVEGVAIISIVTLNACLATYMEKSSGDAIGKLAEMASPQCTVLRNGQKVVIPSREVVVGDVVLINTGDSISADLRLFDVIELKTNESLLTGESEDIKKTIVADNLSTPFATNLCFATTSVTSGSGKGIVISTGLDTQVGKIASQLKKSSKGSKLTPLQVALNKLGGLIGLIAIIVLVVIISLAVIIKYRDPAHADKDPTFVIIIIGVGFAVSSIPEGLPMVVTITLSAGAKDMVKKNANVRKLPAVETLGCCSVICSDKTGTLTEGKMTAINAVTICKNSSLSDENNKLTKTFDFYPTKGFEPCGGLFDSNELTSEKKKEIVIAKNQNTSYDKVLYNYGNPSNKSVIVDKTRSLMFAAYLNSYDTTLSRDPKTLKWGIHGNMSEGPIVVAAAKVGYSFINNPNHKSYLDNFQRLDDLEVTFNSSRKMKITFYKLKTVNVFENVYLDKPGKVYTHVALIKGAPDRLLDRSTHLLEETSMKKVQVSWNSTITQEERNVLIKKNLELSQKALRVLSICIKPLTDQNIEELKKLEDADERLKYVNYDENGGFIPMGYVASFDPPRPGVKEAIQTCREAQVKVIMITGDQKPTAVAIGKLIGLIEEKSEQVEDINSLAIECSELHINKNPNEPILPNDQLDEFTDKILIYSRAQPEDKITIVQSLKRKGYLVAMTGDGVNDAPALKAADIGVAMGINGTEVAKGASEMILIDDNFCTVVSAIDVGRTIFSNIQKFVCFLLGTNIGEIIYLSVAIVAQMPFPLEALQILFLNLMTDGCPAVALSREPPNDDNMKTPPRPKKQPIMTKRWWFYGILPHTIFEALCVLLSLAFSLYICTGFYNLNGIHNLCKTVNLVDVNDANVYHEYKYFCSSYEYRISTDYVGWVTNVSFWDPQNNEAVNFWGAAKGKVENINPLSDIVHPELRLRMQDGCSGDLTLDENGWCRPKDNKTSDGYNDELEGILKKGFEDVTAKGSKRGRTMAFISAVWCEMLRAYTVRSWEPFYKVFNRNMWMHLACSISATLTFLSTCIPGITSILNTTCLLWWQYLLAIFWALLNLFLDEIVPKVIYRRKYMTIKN
# Description: Membranes from isolated P. falciparum or extracellular T. gondii parasites were prepared by lysing parasites in ice-cold deionized water containing a 1:500 dilution of Protease Inhibitor Cocktail Set III (Merck Millipore), then washing the membrane preparation three times in ice-cold deionized water (with protease inhibitors present for the first two washes)[15]. Protein concentrations in the membrane preparations were measured using a Bradford assay. The PiColorLock Gold Phosphate Detection System (Innova Biosciences) was used to measure the production of Pi from hydrolysis of ATP[15]. Membrane preparations were diluted in either a high Na^+ solution (yielding final conditions in the reactions of 150 mM NaCl, 20 mM KCl, 2 mM MgCl2, 50 mM Tris, pH 7.2) or a Na^+-free solution (yielding final conditions of 150 mM choline chloride, 20 mM KCl, 2 mM MgCl2, 50 mM Tris, pH 7.2) to achieve a total protein concentration of 50 μg/mL. […] The reactions were performed at 37 °C, and were initiated by the addition of 1 mM ATP (Na2ATP۰3H2O; MP Biomedicals) and terminated 10 min later by adding 100 μL of reaction mixture (in duplicate) to 25 μL “Gold mix” in a 96-well plate. “Stabiliser” was added 3 min later, and the plates incubated at room temperature in the dark for 60 min before measuring absorbance at 635 nm. Background values (averaged from wells containing all components, but to which ATP was not added until after the membrane was exposed to Gold mix) were subtracted from the data. For each treatment, the ATPase activity associated with the (Na^+-dependent) PfATP4 and TgATP4 proteins was calculated by subtracting data obtained in the low Na^+ condition (containing only the 2 mM Na^+ introduced on addition of 1 mM Na2ATP) from that obtained in the high Na^+ condition.
# NF54^G358S-2 parasites = test: P. falciparum proliferation assay (72 h, flow cytometry, SYBR Green I/MitoTracker); assay type: cell-based, Plasmodium falciparum
# Description: (§1) For the NF54-based lines and Dd2-B2-PfATP4^G358S and its parent, assays were initiated with cultures containing predominantly ring-stage parasites with a parasitaemia of 0.3% and a haematocrit of 1%. All assays using NF54 were performed in culture media containing 10% O + human serum. The duration of the assays was 72 h and the concentration of DMSO was <0.5% (v/v). Serial dilutions of the test compounds were performed using a Tecan D300e digital dispenser, with parasite cultures added manually. Parasite survival was assessed by flow cytometry on an Intellicyt iQue3 (Essen Bioscience), with 1× SYBR Green I (Invitrogen) and 200 nM MitoTracker Deep Red FM (Invitrogen) used to stain the nucleus and the mitochondria in live parasites, respectively. The gating strategy used to quantify parasite survival, performed using FlowJo version 10 (FlowJo LLC.), is illustrated in Supplementary Fig. 9. IC50 and IC90 values were calculated by linear interpolation of the dose-response data.
# NF54^CTL parasites = test: as above; assay type: cell-based, Plasmodium falciparum
# Description: as §1
structure (smiles),measurement,setting,value
N#Cc1cc(NC(=O)[C@H]2c3ccccc3C(=O)N(CC(F)(F)F)[C@@H]2c2cccnc2)ccc1F [(+)SJ733],PfATP4-associated ATPase activity (% of control),"[1]; [(+)SJ733] 0.122 nM, MEAN",74.2 % of control
same,PfATP4-associated ATPase activity (% of control),"[1]; [(+)SJ733] 0.122 nM, single experiments, 0.000122 µM",57.4 % of control and 86.4 % of control and 78.7 % of control
same,PfATP4-associated ATPase activity (% of control),"[1]; [(+)SJ733] 0.244 nM, MEAN",71.3 % of control
same,PfATP4-associated ATPase activity (% of control),"[1]; [(+)SJ733] 0.244 nM, single experiments, 0.000244 µM",51.9 % of control and 74.9 % of control and 87.1 % of control
same,PfATP4-associated ATPase activity (% of control),"[1]; [(+)SJ733] 0.5 nM, MEAN",85.1 % of control
same,PfATP4-associated ATPase activity (% of control),"[1]; [(+)SJ733] 1.0 nM, MEAN",59.1 % of control
same,PfATP4-associated ATPase activity (% of control),"[1]; [(+)SJ733] 2.0 nM, MEAN",64.2 % of control
same,PfATP4-associated ATPase activity (% of control),"[1]; [(+)SJ733] 3.9 nM, MEAN",46.7 % of control
same,PfATP4-associated ATPase activity (% of control),"[1]; [(+)SJ733] 7.8 nM, MEAN",32.8 % of control
same,PfATP4-associated ATPase activity (% of control),"[1]; [(+)SJ733] 15.6 nM, MEAN",21.9 % of control
same,PfATP4-associated ATPase activity (% of control),"[1]; [(+)SJ733] 31.3 nM, MEAN",30.9 % of control
same,PfATP4-associated ATPase activity (% of control),"[1]; [(+)SJ733] 62.5 nM, MEAN",7.7 % of control
same,PfATP4-associated ATPase activity (% of control),"[1]; [(+)SJ733] 250 nM, MEAN",11.2 % of control
same,PfATP4-associated ATPase activity (% of control),"[1]; [(+)SJ733] 500 nM, MEAN",-2.6 % of control
same,PfATP4-associated ATPase activity (% of control),"[1]; [(+)SJ733] 1000 nM, MEAN",-8.2 % of control
same,PfATP4-associated ATPase activity (% of control),"[1]; [(+)SJ733] 2000 nM, MEAN",7.9 % of control
same,PfATP4-associated ATPase activity (% of control),"[1]; [(+)SJ733] 4000 nM, MEAN",-17.1 % of control
same,PfATP4-associated ATPase activity (% of control),"[1]; [(+)SJ733] 8000 nM, MEAN",-14.6 % of control
C[C@H]1[C@@H](O)O[C@@H]2O[C@@]3(C)CC[C@H]4[C@H](C)CC[C@@H]1[C@@]24OO3 [Dihydroartemisinin],FC (IC50),NF54^G358S-2 parasites; NF54G358S-2 compared to NF54WT,1.1 fold
same,FC (IC90),NF54^G358S-2 parasites; NF54G358S-2 compared to NF54WT,1.2 fold
same,IC90,"NF54^G358S-2 parasites; NF54G358S-2 parasites, individual experiments, read-out: IC90 values",2.9 nM and 2.51 nM and 2.93 nM
same,IC50,"NF54^G358S-2 parasites; Plasmodium falciparum, NF54, NF54G358S-2, 10% human serum, read-out: IC50 ± SEM",0.9 ± 0.1 nM
same,IC90,"NF54^G358S-2 parasites; Plasmodium falciparum, NF54, NF54G358S-2 parasites, individual experiments, read-out: IC90 values",2.84 nM
same,IC90,"NF54^G358S-2 parasites; Plasmodium falciparum, NF54, NF54G358S-2 parasites, mean of the experiments, read-out: IC90 values, MEAN",2.8 nM
same,IC50,"NF54^G358S-2 parasites; Plasmodium falciparum, NF54, read-out: Dihydroartemisinin IC50 values, NF54G358S-2, MEAN",0.91 nM
same,IC50,"NF54^G358S-2 parasites; read-out: Dihydroartemisinin IC50 values, NF54G358S-2, single experiments",0.73 nM
same,FC (IC50),NF54^CTL parasites; NF54CTL compared to NF54WT,1.1 fold
same,FC (IC90),NF54^CTL parasites; NF54CTL compared to NF54WT,1.2 fold
same,IC90,"NF54^CTL parasites; NF54CTL parasites, individual experiments, read-out: IC90 values",3 nM and 2.45 nM and 2.56 nM
same,IC90,"NF54^CTL parasites; Plasmodium falciparum, NF54, NF54CTL parasites, individual experiments, read-out: IC90 values",2.88 nM
same,IC90,"NF54^CTL parasites; Plasmodium falciparum, NF54, NF54CTL parasites, mean of the experiments, read-out: IC90 values, MEAN",2.7 nM
same,IC50,"NF54^CTL parasites; Plasmodium falciparum, NF54, NF54CTL, 10% human serum, read-out: IC50 ± SEM",0.9 ± 0.1 nM
same,IC50,"NF54^CTL parasites; Plasmodium falciparum, NF54, read-out: Dihydroartemisinin IC50 values, NF54CTL, MEAN",0.89 nM
same,IC50,"NF54^CTL parasites; read-out: Dihydroartemisinin IC50 values, NF54CTL, single experiments",0.98 nM and 0.8 nM and 0.7 nM
